Active and inactive are the calls of the source.
What was measured:
[1] = HEK-293T viability loss, compound-treated – cell-based, uHTS hits, cytotoxicity control for B/T-cell NF-kB inhibitor project, dose response (AID 489019); format: functional;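 note: IC50 reflects cytotoxicity as loss of cell viability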
[2] = target: T1, Microphthalmia-associated transcription factor (Homo sapiens, UniProt O75030); test: reducers of TRPM1 reporter luminescence, concentration series – cell-based, SK-MEL-5, cherry-picked, set 3, MITF inhibitor project, dose response (AID 493073); format: functional;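 note: SK-MEL-5 melanoma cells with luciferase driven by the MITF target TRPM1 promoter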
T1 sequence (O75030 whole entry): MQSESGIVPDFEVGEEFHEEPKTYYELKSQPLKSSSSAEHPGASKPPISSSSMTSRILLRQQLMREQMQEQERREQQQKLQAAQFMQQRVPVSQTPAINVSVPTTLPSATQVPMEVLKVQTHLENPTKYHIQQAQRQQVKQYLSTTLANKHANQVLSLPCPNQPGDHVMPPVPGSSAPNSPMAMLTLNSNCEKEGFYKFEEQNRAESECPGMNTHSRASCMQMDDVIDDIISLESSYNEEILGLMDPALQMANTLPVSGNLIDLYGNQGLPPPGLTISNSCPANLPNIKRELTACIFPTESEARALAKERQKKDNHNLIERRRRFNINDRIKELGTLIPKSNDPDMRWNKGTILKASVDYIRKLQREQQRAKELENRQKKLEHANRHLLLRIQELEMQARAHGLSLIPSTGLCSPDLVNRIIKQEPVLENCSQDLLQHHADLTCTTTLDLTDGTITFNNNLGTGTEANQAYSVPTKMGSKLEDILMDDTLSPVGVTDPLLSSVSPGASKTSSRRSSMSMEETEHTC

[3] = tested on: Jurkat; test: blockers of NF-kB activation in T cells – Jurkat, luciferase reporter, luminescence, B- and T-cell, dose response (AID 489004); format: functional, cell-based; settings: Homo sapiens;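 note: NF-kB luciferase reporter Jurkat cells stimulated with PMA plus ionomycin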
[4] = tested on: Candida albicans; test: Candida growth inhibition combined with fluconazole – CaCi-2 strain, Alamar Blue, dry powder, set 3, dose response (AID 488907); format: functional, organism-based
[5] = tested on: HEK293; test: cells; format: functional, cell-based; settings: Homo sapiens
[6] = target: T2, Neuropeptide Y receptor type 1 (Homo sapiens, UniProt P25929); test: Fluorescence-based counterscreen for agonists of NPY-Y2: cell-based high-throughput dose response assay for agonists of NPY-Y1.; format: functional
T2 sequence (P25929 whole entry): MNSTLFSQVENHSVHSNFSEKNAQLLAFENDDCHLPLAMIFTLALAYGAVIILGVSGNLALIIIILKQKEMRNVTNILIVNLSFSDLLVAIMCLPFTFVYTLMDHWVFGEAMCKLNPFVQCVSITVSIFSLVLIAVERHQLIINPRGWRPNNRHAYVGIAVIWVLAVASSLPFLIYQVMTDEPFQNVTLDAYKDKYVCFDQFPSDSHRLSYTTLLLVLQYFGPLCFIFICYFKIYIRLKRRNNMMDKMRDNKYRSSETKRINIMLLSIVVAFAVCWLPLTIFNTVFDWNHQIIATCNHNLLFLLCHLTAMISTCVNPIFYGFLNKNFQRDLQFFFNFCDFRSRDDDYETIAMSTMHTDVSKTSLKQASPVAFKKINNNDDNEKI

[7] = tested on: HEK293; test: cells; format: functional, cell-based; settings: Homo sapiens; remark: listed apart in the source
[8] = target: T3, Neuropeptide Y receptor type 2 (Homo sapiens, UniProt P49146); test: Fluorescence-based cell-based high-throughput dose response assay for agonists of NPY-Y2. [Related pubchem assays: 1703 (Screening assay (CNGC inhibitors).), 1359 (Screening assay (NPY-Y2 potentiators or agonists).), 1304 (Screening assay (NPY-Y1 potentiators or agonists).), 1710 (Screening assay (NPY-Y2 agonists).), 1791 (Summary AID.)]; format: functional
T3 sequence (P49146 whole entry): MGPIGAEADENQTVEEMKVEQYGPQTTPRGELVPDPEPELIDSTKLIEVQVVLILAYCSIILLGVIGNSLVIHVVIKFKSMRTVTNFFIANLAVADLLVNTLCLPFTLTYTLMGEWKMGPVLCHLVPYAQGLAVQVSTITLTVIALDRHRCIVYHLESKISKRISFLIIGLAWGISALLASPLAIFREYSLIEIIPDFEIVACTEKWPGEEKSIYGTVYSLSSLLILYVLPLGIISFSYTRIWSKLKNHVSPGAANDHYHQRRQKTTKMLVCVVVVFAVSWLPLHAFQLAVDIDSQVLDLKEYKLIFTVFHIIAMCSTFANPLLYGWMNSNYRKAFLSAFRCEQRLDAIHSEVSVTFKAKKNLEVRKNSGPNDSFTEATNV

[9] = tested on: HEK293; test: NOD2 signaling inhibitors in MDP-stimulated cells, cell-based, uHTS, luminescence (AID 2001); format: functional; settings: Homo sapiens
[10] = tested on: HEK293; test: Fluorescence-based counterscreen for potentiators or agonists of NPY-Y2: cell-based high-throughput dose response assay to identify inhibitors of cyclic nucleotide gated ion channel (CNGC) activity. In this assay, the parental HEK293 cell line transfected with a cyclic-nucleotide gated ion channel (CNGC)-based cAMP sensor is used to measure inhibition of isoproterenol-induced CNGC activity by test compound.; format: functional; settings: Homo sapiens
[11] = HepG2 cell cytotoxicity, dose response, cytotoxicity control for non-replicating M. tuberculosis project (AID 489018); format: functional; settings: Mycobacterium tuberculosis
[12] = THP-1 cell cytotoxicity, dose response, cytotoxicity control for non-replicating M. tuberculosis project (AID 489025); format: functional
[13] = cells; format: functional
[14] = tested on: HEK293; test: inhibition of NOD1-driven NF-kB reporter – cell-based, luminescence, uHTS, primary screen (AID 1578); format: functional; settings: Homo sapiens
[15] = tested on: Vero; test: cells; format: functional; settings: Chlorocebus sabaeus
[16] = target: Nucleotide-binding oligomerization domain-containing protein 2 (Homo sapiens, UniProt Q9HC29); test: inhibition of NOD2-driven NF-kB reporter – cell-based, luminescence, uHTS, HEK293 (AID 1566); format: functional
Sequence of Nucleotide-binding oligomerization domain-containing protein 2 (Q9HC29 whole entry, the tested form may be a part): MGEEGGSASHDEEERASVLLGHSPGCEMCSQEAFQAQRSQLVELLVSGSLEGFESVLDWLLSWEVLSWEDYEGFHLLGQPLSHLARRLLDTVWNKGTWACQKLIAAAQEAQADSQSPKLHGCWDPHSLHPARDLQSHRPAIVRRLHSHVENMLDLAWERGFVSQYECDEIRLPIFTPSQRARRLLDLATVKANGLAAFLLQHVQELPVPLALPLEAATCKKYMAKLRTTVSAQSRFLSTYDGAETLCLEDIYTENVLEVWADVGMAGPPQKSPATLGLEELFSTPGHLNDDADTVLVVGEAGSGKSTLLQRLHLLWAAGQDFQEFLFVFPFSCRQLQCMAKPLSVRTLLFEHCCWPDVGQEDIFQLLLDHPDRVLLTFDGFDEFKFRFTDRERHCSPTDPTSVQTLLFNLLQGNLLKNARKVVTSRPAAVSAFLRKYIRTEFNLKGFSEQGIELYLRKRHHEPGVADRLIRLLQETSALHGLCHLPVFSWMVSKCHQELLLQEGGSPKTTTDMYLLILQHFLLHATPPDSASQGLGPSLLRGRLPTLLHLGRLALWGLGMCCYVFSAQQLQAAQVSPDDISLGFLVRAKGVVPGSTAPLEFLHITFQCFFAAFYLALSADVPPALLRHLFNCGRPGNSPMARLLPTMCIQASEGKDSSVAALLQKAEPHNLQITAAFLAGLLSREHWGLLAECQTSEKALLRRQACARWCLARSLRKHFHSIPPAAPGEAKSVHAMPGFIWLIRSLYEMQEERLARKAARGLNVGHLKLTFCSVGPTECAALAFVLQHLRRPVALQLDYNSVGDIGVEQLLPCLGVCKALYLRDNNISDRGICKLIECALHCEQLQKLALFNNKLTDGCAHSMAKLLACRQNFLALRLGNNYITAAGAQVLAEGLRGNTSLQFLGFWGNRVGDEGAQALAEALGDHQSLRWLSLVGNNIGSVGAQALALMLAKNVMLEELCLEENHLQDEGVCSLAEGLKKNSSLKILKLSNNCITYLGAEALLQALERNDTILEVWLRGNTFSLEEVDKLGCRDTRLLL

[17] = tested on: HEK293; test: cells; format: functional, cell-based; settings: Homo sapiens; remark: listed apart in the source
[18] = tested on: HEK293; test: cells; format: functional, cell-based; settings: Homo sapiens; remark: listed apart in the source
[19] = target: Nuclear receptor subfamily 0 group B member 1 (Homo sapiens, UniProt P51843); test: Luminescence-based cell-based high throughput dose response assay for inhibitors of the orphan nuclear receptor subfamily 0, group B, member 1 (DAX1; NR0B1). [Related pubchem assays (depositor defined):AID504766, AID504790]; format: functional
Sequence of Nuclear receptor subfamily 0 group B member 1 (P51843 whole entry): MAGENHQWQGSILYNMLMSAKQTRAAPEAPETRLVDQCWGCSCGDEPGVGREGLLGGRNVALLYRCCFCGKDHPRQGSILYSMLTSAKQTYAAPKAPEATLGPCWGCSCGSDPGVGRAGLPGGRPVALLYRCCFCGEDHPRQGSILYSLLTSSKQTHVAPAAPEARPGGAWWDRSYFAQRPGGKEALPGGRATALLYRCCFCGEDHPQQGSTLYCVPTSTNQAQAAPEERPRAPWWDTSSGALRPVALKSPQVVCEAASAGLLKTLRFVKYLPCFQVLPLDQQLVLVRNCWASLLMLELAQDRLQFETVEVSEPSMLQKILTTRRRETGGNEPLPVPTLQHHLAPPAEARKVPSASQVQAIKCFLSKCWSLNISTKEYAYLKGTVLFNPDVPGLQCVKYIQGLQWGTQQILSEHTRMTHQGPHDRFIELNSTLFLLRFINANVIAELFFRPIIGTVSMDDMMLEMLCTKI

Question: Which IC50 [1] does the source give for COc1ccc(/C=C2\SC(=O)N(CCCC(=O)Nc3cc(Cl)ccc3C(=O)O)C2=O)cc1 here?
Answer: > 80 µM (inactive)

Question: What about the AC50 [2] of the same compound?
Answer: 0.528 µM (active)

Question: What about the IC50 [3] of the same compound?
Answer: < 0.16 µM (active)

Question: With O=C(c1ccc(Cl)cc1)N1CCN(c2ncccc2C(F)(F)F)CC1 as the compound, how does the AC50 [4] read?
Answer: 0.217 µM (active)

Question: With O=C(N/N=C/c1cccc2cccnc12)c1ccccc1O as the compound, how does the IC50 [5] read?
Answer: > 20 µM (inactive)

Question: What about the EC50 [6] of the same compound?
Answer: > 35.4 µM (not active)

Question: What about the IC50 [7] of the same compound?
Answer: > 20 µM (inactive)

Question: What about the EC50 [8] of the same compound?
Answer: > 35.4 µM (not active)

Question: And the IC50 [9]?
Answer: 5.04 µM (inactive)

Question: What about the EC50 [10] of the same compound?
Answer: > 35.4 µM (not active)

Question: And the CC50 [11]?
Answer: > 20 µM (active)

Question: What about the CC50 [12] of the same compound?
Answer: 11.7 µM (active)

Question: What about the IC50 [13] of the same compound?
Answer: 0.97 µM (active)

Question: What about the EC50 [14] of the same compound?
Answer: > 20 µM (inactive)

Question: What about the AC50 [2] of the same compound?
Answer: 24.8 µM (active)

Question: What about the CC50 [15] of the same compound?
Answer: 18.8 µM (active)

Question: And the EC50 [16]?
Answer: > 20 µM (inactive)

Question: And the IC50 [17]?
Answer: 6.52 µM (active)

Question: For N#C/C(=N/Nc1ccc([N+](=O)[O-])cc1)C(=N)N1CCCCC1, which IC50 [18] is on record?
Answer: > 67.5 µM (inactive)

Question: And the IC50 [19]?
Answer: > 67.5 µM (inactive)

— ChEMBL document CHEMBL1201862, “PubChem BioAssay data set” (2004)
